Results as given in patent US20050049285A1, “Dichloropyridyl methyl cyanamidines” (priority 2000, published 2005).

Key:
[1] = test system: Erysiphe graminis f. sp. hordei; test: Erysiphe-Test (barley)/induction of resistance; type: in vivo, Erysiphe graminis f. sp. hordei on barley; conditions: barley plants sprayed at 750 g/ha; inoculated 4 days after treatment; evaluated 7 days after inoculation; 0% = as control, 100% = no infection
Experimental: Erysiphe-Test (Barley)/Induction of Resistance
To produce a suitable preparation of active compound, 1 part by weight of active compound is mixed with the stated amounts of solvent and emulsifier, and the concentrate is diluted with water to the desired concentration.
To test for resistance-inducing activity, young cereal plants are sprayed with the preparation of active compound at the stated application rate. 4 days after the treatment, the plants are inoculated with spores of Erysiphe graminis f. sp. hordei. The plants are then placed in the greenhouse at 70% relative atmospheric humidity and a temperature of 18 C.
Evaluation is carried out 7 days after the inoculation. 0% means an efficacy which corresponds to that of the control, whereas an efficacy of 100% means that no infection is observed.

SMILES	Efficacy in % [1] [%]	melting point [°C]
CC/C(=N\C#N)NCc1cc(Cl)nc(Cl)c1	80	–
C/C(=N\C#N)NCc1cc(Cl)nc(Cl)c1	95	–
N#C/N=C/NCc1cc(Cl)nc(Cl)c1 [Example 1, N′-cyano-N-[(2,6-dichloro-4-pyridinyl)methyl]imidoformamide]	–	160
N#C/N=C/NCc1cc(Cl)nc(Cl)c1 [drawing 9]	100	–
